Values after ≈ are worked out from the molar mass of the structure shown. Values joined by “and” are separate entries in the source; they are usually repeats but may differ in a detail not shown here. Identical values can stand only once. One block for each compound: values may come before it.
Experiments:
Assay in all cases: ≥ marks a high value that may be exact or a test limit, other limits are often not marked, values filed in µg/mL are converted to µM
[1] = tested on: Acinetobacter baumannii AB1
[2] = tested on: Klebsiella pneumoniae KP3
[3] = tested on: Acinetobacter baumannii AB2
[4] = tested on: Staphylococcus aureus 4003
[5] = tested on: Pseudomonas aeruginosa PAO1
[6] = tested on: Pseudomonas aeruginosa TRPA 111
[7] = tested on: Klebsiella pneumoniae KP2
[8] = tested on: Staphylococcus aureus USA 100
[9] = tested on: Klebsiella pneumoniae KP4
[10] = tested on: Acinetobacter baumannii AB3
[11] = tested on: Staphylococcus aureus USA 300
[12] = tested on: Klebsiella pneumoniae KP1
[13] = tested on: Pseudomonas aeruginosa TRPA 108
[14] = tested on: Acinetobacter baumannii ATCC 19606
[15] = tested on: Klebsiella pneumoniae ATCC 700603
[16] = tested on: Escherichia coli ATCC 25922
[17] = tested on: Staphylococcus aureus ATCC 43300
[18] = tested on: Cryptococcus neoformans ATCC 208821
[19] = tested on: Candida albicans ATCC 90028
[20] = tested on: Pseudomonas aeruginosa ATCC 27853
[21] = tested on: Staphylococcus aureus ATCC 29213
[22] = tested on: Salmonella sp.
[23] = tested on: Yersinia enterocolitica
[24] = tested on: Escherichia coli
[25] = tested on: Salmonella enterica subsp. enterica serovar Enteritidis
[26] = tested on: Aeromonas salmonicida
[27] = tested on: Vibrio anguillarum
[28] = tested on: Staphylococcus aureus MR
[29] = tested on: Staphylococcus aureus ATCC 49476
[30] = tested on: Candida albicans
[31] = tested on: Staphylococcus aureus NCTC 12981
[32] = tested on: Escherichia coli NCTC 10418

MIC [1]: 1.47 µM (≈ 5 µg/mL)
MIC [2]: 2.94 µM (≈ 10 µg/mL)
MIC [3]: 3.24 µM (≈ 11 µg/mL)
MIC [4]: 1.47 µM (≈ 5 µg/mL)
MIC [5]: 1.76 µM and 3.5 µM
MIC [6]: 0.882 µM (≈ 3 µg/mL)
MIC [7]: 9.41 µM (≈ 32 µg/mL)
MIC [8]: 1.76 µM (≈ 6 µg/mL)
MIC [9]: 4.71 µM (≈ 16 µg/mL)
MIC [10]: 1.76 µM (≈ 6 µg/mL)
MIC [11]: 1.76 µM and 3.2 µM
MIC [12]: 2.94 µM (≈ 10 µg/mL)
MIC [13]: 1.18 µM (≈ 4 µg/mL)
SMILES: CC(C)[C@H](NC(=O)[C@H](Cc1c[nH]c2ccccc12)NC(=O)[C@H](CCCN=C(N)N)NC(=O)[C@H](CCCN=C(N)N)NC(=O)[C@@H](NC(=O)[C@@H](NC(=O)[C@H](CCCN=C(N)N)NC(=O)[C@@H](NC(=O)[C@@H](NC(=O)[C@H](CCCN=C(N)N)NC(=O)[C@H](CCCN=C(N)N)NC(=O)[C@@H](NC(=O)[C@H](Cc1c[nH]c2ccccc12)NC(=O)[C@H](CCCN=C(N)N)NC(=O)[C@H](CCCN=C(N)N)NC(=O)[C@@H](NC(=O)[C@H](CCCN=C(N)N)NC(=O)[C@H](CCCN=C(N)N)NC(=O)[C@@H](NC(=O)[C@H](Cc1c[nH]c2ccccc12)NC(=O)[C@H](CCCN=C(N)N)NC(=O)[C@@H](N)CCCN=C(N)N)C(C)C)C(C)C)C(C)C)C(C)C)C(C)C)C(C)C)C(C)C)C(=O)N[C@@H](CCCN=C(N)N)C(=O)N[C@@H](CCCN=C(N)N)C(=O)O [RRWVRRVRRWVRRVVRVVRRWVRR]

MIC [14]: > 11.9 µM
MIC [15]: > 11.9 µM
MIC [16]: > 11.9 µM
MIC [17]: > 11.9 µM
MIC [18]: 1.49 µM (≈ 4 µg/mL)
MIC [19]: 11.9 µM (≈ 32 µg/mL)
MIC [20]: > 11.9 µM
SMILES: NC(=O)CC[C@H](NC(=O)[C@H](CCCN=C(N)N)NC(=O)[C@H](CCCN=C(N)N)NC(=O)[C@H](CS)NC(=O)[C@H](CCC(N)=O)NC(=O)[C@H](Cc1cnc[nH]1)NC(=O)[C@H](CO)NC(=O)[C@H](CCCN=C(N)N)NC(=O)[C@H](Cc1ccccc1)NC(=O)[C@H](Cc1cnc[nH]1)NC(=O)[C@H](CCCN=C(N)N)NC(=O)[C@H](Cc1cnc[nH]1)NC(=O)[C@H](Cc1cnc[nH]1)NC(=O)[C@@H](N)CO)C(=O)N[C@@H](CCCN=C(N)N)C(=O)N[C@@H](CO)C(=O)N[C@@H](CC(N)=O)C(=O)N[C@@H](CO)C(=O)N[C@@H](CS)C(=O)N[C@@H](CC(=O)O)C(=O)N[C@@H](CCCN=C(N)N)C(=O)O [SHHRHFRSHQCRRQRSNSCDR]

MIC [21]: > 37.7 µM
MIC [22]: ≥ 37.7 µM
MIC [23]: ≥ 37.7 µM
MIC [16]: > 37.7 µM
MIC [17]: > 37.7 µM
MIC [24]: > 37.7 µM
MIC [25]: ≥ 37.7 µM
SMILES: CC[C@H](C)[C@H](NC(=O)[C@H](CCCCN)NC(=O)[C@@H](N)CCCN=C(N)N)C(=O)N[C@@H](CCCN=C(N)N)C(=O)N[C@@H](CCCN=C(N)N)C(=O)N[C@@H](CCCCN)C(=O)N[C@@H](Cc1c[nH]c2ccccc12)C(=O)N[C@@H](CCCCN)C(=O)N[C@@H](CCCN=C(N)N)C(N)=O [RKIRRKWKR]

MIC [26]: ≥ 413 µM
MIC [27]: ≥ 413 µM
SMILES: CC(C)[C@H](NC(=O)[C@H](CCC(=O)O)NC(=O)[C@H](C)N)C(=O)N[C@@H](C)C(=O)N1CCC[C@H]1C(=O)N[C@@H](C)C(=O)N1CCC[C@H]1C(=O)N[C@@H](C)C(=O)N[C@@H](C)C(=O)N[C@@H](C)C(=O)N[C@@H](C)C(=O)N1CCC[C@H]1C(=O)N[C@@H](C)C(=O)N[C@@H](CCCCN)C(=O)N[C@@H](C)C(=O)N1CCC[C@H]1C(=O)N[C@@H](CCCCN)C(=O)N[C@@H](CCCCN)C(=O)N[C@@H](CCCCN)C(=O)N[C@@H](C)C(=O)N[C@@H](C)C(=O)N[C@@H](C)C(=O)N[C@@H](CCCCN)C(=O)N1CCC[C@H]1C(=O)N[C@@H](CCCCN)C(=O)N[C@@H](CCCCN)C(N)=O [AEVAPAPAAAAPAKAPKKKAAAKPKK]

MIC [28]: ≥ 188 µM
MIC [29]: ≥ 188 µM
MIC [20]: 188 µM (≈ 512 µg/mL)
MIC [30]: 47 µM (≈ 128 µg/mL)
SMILES: CC[C@H](C)[C@H](NC(=O)[C@H](C)NC(=O)[C@H](CCCCN)NC(=O)CNC(=O)[C@H](C)NC(=O)[C@H](CO)NC(=O)[C@H](Cc1ccccc1)NC(=O)[C@H](CC(C)C)NC(=O)CNC(=O)CNC(=O)[C@@H](NC(=O)[C@@H](NC(=O)[C@H](Cc1cnc[nH]1)NC(=O)[C@@H](N)Cc1cnc[nH]1)[C@@H](C)CC)[C@@H](C)CC)C(=O)N[C@@H](Cc1cnc[nH]1)C(=O)N[C@@H](CCCN=C(N)N)C(=O)N[C@@H](CC(C)C)C(=O)N[C@H](C(=O)N[C@@H](CCCN=C(N)N)C(=O)N[C@@H](CCCN=C(N)N)C(=O)N[C@@H](CCCN=C(N)N)C(=O)N[C@@H](CCCN=C(N)N)C(=O)N[C@@H](CCCN=C(N)N)C(=O)O)[C@@H](C)CC [HHIIGGLFSAGKAIHRLIRRRRR]

MIC [31]: ≥ 154 µM
MIC [32]: ≥ 154 µM
SMILES: NCCCC[C@H](NC(=O)[C@H](Cc1c[nH]c2ccccc12)NC(=O)[C@H](CCCCN)NC(=O)[C@@H](N)Cc1c[nH]c2ccccc12)C(=O)N[C@@H](Cc1c[nH]c2ccccc12)C(N)=O [WKWKW]

Reference: DBAASP
